Patent US20100022648A1, “ORAL USE OF AT LEAST ONE MONOUNSATURATED FATTY ACID FOR HAIR IMPROVEMENT” (L'OREAL, priority 2006, published 2010)
Marks after values point to notes of the source that are not given here.

System: dermal fibroblasts
Assay: Formation of glycation products in cultures of dermal fibroblasts (Dot Blot immunodetection, densitometric analysis)
Format: cell-based
Details: culture of dermal fibroblasts; for % GP relative to the control: GP = glycation products, Aminoguanidine 1 mg/ml, Petroselinic acid 0.885 mM, control = 100, p < 0.01; for decrease in the formation of glycation products relative to the control: same concentrations as Table 1
Protocol: Dermal fibroblasts are cultured by the usual techniques that are well known by a person skilled in the art.
The glycation products are quantified by densitometric analysis of the spots in immunodetection of the glycation products (Dot Blot method), relative to a control (culture of fibroblasts without addition of the product).
Thus, aminoguanidine reduces the amount of glycation product relative to the control by 58%.
In another case, the culture of fibroblasts is supplemented with petroselinic acid.

N=C(N)NN [Aminoguanidine, aminoguanidine]
% GP relative to the control: 42* %
% GP relative to the control (listed as aminoguanidine): 42%
decrease in the formation of glycation products relative to the control: 58%

CCCCCCCCCCC/C=C\CCCCC(=O)O [Petroselinic acid, petroselinic acid]
% GP relative to the control: 73* %
% GP relative to the control (listed as petroselinic acid): 73%
decrease in the formation of glycation products relative to the control: 27%
